Data taken from the supplement of paper PMC10307832.

Assays:
Experiment in all cases: relative viability (nuclei count vs DMSO), 5 days (fraction); higher = more cells survive
[1] = compound: NC1(c2ccc(-c3nc4ccn5c(=O)[nH]nc5c4cc3-c3ccccc3)cc2)CCC1 [MK-2206] + Nc1nc2[nH]cc(CCc3ccc(C(=O)N[C@@H](CCC(=O)O)C(=O)O)cc3)c2c(=O)[nH]1 [Pemetrexed] (partner 0.2 µM)
How it was run: (§1)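 Lung cancer cell lines in 1536-well plates got either a single drug or a fixed anchor-drug dose together with five library-drug doses (not always all listed) in √10 steps, by pin tool, on the day after seeding. Nuclei were counted after 5 days, and relative viability is the treated-to-vehicle ratio of nuclei counts. Values are medians of duplicate plates.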

[2] = compound: CS(=O)(=O)N1CCN(Cc2cc3nc(-c4cccc5[nH]ncc45)nc(N4CCOCC4)c3s2)CC1 [Pictilisib] + CCNC(=O)c1noc(-c2cc(C(C)C)c(O)cc2O)c1-c1ccc(CN2CCOCC2)cc1 [Luminespib] (partner 0.01 µM)
How it was run: as §1

[3] = compound: CS(=O)(=O)N1CCN(Cc2cc3nc(-c4cccc5[nH]ncc45)nc(N4CCOCC4)c3s2)CC1 [Pictilisib] + Nc1nc2[nH]cc(CCc3ccc(C(=O)N[C@@H](CCC(=O)O)C(=O)O)cc3)c2c(=O)[nH]1 [Pemetrexed] (partner 0.2 µM)
How it was run: as §1

[4] = compound: CS(=O)(=O)N1CCN(Cc2cc3nc(-c4cccc5[nH]ncc45)nc(N4CCOCC4)c3s2)CC1 [Pictilisib] + CC(=O)Nc1cccc(-n2c(=O)n(C3CC3)c(=O)c3c(Nc4ccc(I)cc4F)n(C)c(=O)c(C)c32)c1 [Trametinib] (partner 0.02 µM)
How it was run: as §1

[5] = compound: CS(=O)(=O)N1CCN(Cc2cc3nc(-c4cccc5[nH]ncc45)nc(N4CCOCC4)c3s2)CC1 [Pictilisib] + CC(=O)c1c(C)c2cnc(Nc3ccc(N4CCNCC4)cn3)nc2n(C2CCCC2)c1=O [Palbociclib] (partner 0.5 µM)
How it was run: as §1

| Cell Line | relative viability ([1]; first compound 0.01 µM) | relative viability ([1]; first compound 0.03162 µM) | relative viability ([1]; first compound 0.3162 µM) | relative viability ([1]; first compound 1 µM) | relative viability ([2]; first compound 0.02 µM) | relative viability ([2]; first compound 0.06325 µM) | relative viability ([2]; first compound 0.6325 µM) | relative viability ([2]; first compound 2 µM) | relative viability ([3]; first compound 0.02 µM) | relative viability ([3]; first compound 0.06325 µM) | relative viability ([3]; first compound 0.6325 µM) | relative viability ([3]; first compound 2 µM) | relative viability ([4]; first compound 0.02 µM) | relative viability ([4]; first compound 0.06325 µM) | relative viability ([4]; first compound 0.6325 µM) | relative viability ([4]; first compound 2 µM) | relative viability ([5]; first compound 0.02 µM) | relative viability ([5]; first compound 0.06325 µM) | relative viability ([5]; first compound 0.6325 µM) | relative viability ([5]; first compound 2 µM) |
| --- | --- | --- | --- | --- | --- | --- | --- | --- | --- | --- | --- | --- | --- | --- | --- | --- | --- | --- | --- | --- |
| NCI-H2342 | 0.663 | 0.782 | 0.675 | 0.738 | 0.669 | 0.586 | 0.588 | 0.365 | 0.695 | 0.782 | 0.677 | 0.528 | 0.77 | 0.747 | 0.724 | 0.476 | 0.515 | 0.507 | 0.444 | 0.403 |
| NCI-H2347 | 0.408 | 0.44 | 0.433 | 0.45 | 0.444 | 0.518 | 0.423 | 0.264 | 0.459 | 0.455 | 0.391 | 0.367 | 0.271 | 0.269 | 0.25 | 0.24 | 0.448 | 0.398 | 0.433 | 0.363 |
| NCI-H2405 | 1.01 | 1.07 | 1.02 | 0.978 | 0.694 | 0.611 | 0.416 | 0.235 | 1.3 | 1.01 | 0.778 | 0.416 | 0.719 | 0.515 | 0.355 | 0.254 | 0.579 | 0.536 | 0.474 | 0.374 |
| NCI-H3122 | 0.202 | 0.197 | 0.203 | 0.193 | 0.0804 | 0.107 | 0.0795 | 0.0927 | 0.189 | 0.196 | 0.192 | 0.172 | 0.201 | 0.202 | 0.161 | 0.122 | 0.181 | 0.194 | 0.176 | 0.139 |
| PC-3 [JPC-3] | 1.12 | 1.24 | 1.23 | 1.07 | 0.604 | 0.775 | 0.509 | 0.462 | 1.22 | 1.24 | 0.872 | 0.579 | 0.727 | 0.658 | 0.586 | 0.433 | 0.539 | 0.494 | 0.534 | 0.456 |
| PC-14 | 0.129 | 0.14 | 0.164 | 0.144 | 0.162 | 0.151 | 0.141 | 0.123 | 0.137 | 0.133 | 0.136 | 0.0862 | 0.749 | 0.761 | 0.537 | 0.196 | 0.488 | 0.564 | 0.507 | 0.334 |
| RERF-LC-KJ | 0.489 | 0.471 | 0.532 | 0.476 | 1.23 | 1.29 | 1 | 0.855 | 0.459 | 0.478 | 0.448 | 0.404 | 0.828 | 0.859 | 0.708 | 0.56 | 1.02 | 1.15 | 0.815 | 0.711 |
| SK-LU-1 | 0.964 | 0.963 | 1.04 | 0.962 | 0.227 | 0.193 | 0.168 | 0.178 | 0.967 | 1.07 | 0.835 | 0.624 | 0.459 | 0.47 | 0.355 | 0.32 | 0.401 | 0.382 | 0.307 | 0.31 |
| SK-MES-1 | 0.881 | 0.938 | 0.899 | 0.816 | 0.748 | 0.702 | 0.279 | 0.219 | 0.941 | 0.948 | 0.879 | 0.391 | 0.537 | 0.434 | 0.331 | 0.226 | 0.326 | 0.302 | 0.346 | 0.262 |
| SW 900 | 0.494 | – | 0.497 | 0.491 | 0.183 | 0.15 | 0.163 | 0.158 | 0.499 | 0.478 | 0.477 | 0.27 | 0.899 | 0.753 | 0.683 | 0.364 | 0.543 | 0.58 | 0.358 | 0.252 |
| SW 1573 | 0.782 | 0.793 | 0.726 | 0.713 | 0.185 | 0.196 | 0.187 | 0.189 | 0.845 | 0.91 | 0.52 | 0.424 | 0.563 | 0.473 | 0.379 | 0.239 | 0.417 | 0.345 | 0.207 | 0.191 |
